Reference: patent US4652563A, “Vasodilators and β-adrenoceptor antagonists” (Smith Kline & French Laboratories Ltd., priority 1984, dated 1987)
Where a name gives a salt, the structure may show the parent alone. Read-outs that look alike come from different tables or passages of the source. Values belong to the compound of their own block, whether it stands above or below them.

Tests used:
[1] = Vasodilator activity: increase in blood flow in autoperfused anaesthetised rat hindquarters; assay type: in vivo; settings: for ED (50% increase): Rattus norvegicus, read-out: dose required to increase hindquarters blood flow by 50%
Text: The doses required to increase hindquarters blood flow by 50% were obtained.

β1 -receptors [2] = target: T1, β1 -receptors (Felis catus, UniProt Q9TST6); experiment: β-Adrenoceptor antagonist activity: inhibition of isoprenaline-induced tachycardia in ganglion blocked anaesthetised cats; assay type: in vivo, cat; settings: for ED50: cat, iv, read-out: ID50 (inhibition of isoprenaline-induced tachycardia by 50%); for ED50 / ID50 (inhibition of isoprenaline-induced tachycardia by 50%): ganglion blocked anaesthetised cats, intravenous
T1 construct: from tissue; host or cells: living anaesthetised cat (in vivo)
T1 sequence (Q9TST6 whole entry): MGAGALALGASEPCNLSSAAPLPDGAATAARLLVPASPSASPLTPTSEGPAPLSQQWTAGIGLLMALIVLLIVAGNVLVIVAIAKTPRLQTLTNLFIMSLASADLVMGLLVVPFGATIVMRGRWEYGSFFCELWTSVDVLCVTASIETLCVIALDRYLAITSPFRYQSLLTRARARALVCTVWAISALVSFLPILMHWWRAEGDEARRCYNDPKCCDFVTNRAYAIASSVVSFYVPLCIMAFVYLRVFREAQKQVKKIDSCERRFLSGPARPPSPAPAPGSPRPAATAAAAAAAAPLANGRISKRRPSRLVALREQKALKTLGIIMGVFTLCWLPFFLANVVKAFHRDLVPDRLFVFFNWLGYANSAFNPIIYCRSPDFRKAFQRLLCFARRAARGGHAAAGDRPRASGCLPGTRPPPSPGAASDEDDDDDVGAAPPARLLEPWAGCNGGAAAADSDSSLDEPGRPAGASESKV
Text: (§1) The doses required to inhibit isoprenaline-induced tachycardia by 50% (ID50) were obtained after intravenous administration.

[3] = Anti-hypertensive activity: fall in blood pressure in anaesthetised rats, intravenous; assay type: in vivo, rat; settings: from dose response graph; for ED (40 mm Hg): Rattus norvegicus, iv, read-out: dose required to lower blood pressure by 40 mm Hg
Procedure: (§2) Compounds were dosed following dissolution in distilled water or in polyethylene glycol and dilution with 0.9% saline. The compounds were then administered intravenously. The blood pressure and heart rate were monitored directly, from a polythene cannula placed in the carotid artery. The doses required to lower blood pressure by 40 mm Hg, when administered intravenously, were obtained from a dose response graph.

β1 -adrenoceptor = experiment: Overall hypotension and β1-adrenoceptor antagonism from the above data; settings: in vivo
Procedure: as §2, §1
(§3) Furthermore they have minimal intrinsic sympathomimetic activity as shown by the absence of a tachycardia in spontaneously beating guinea pig right atria. The compound of Example 1 produced a maximal increase of approximately 10% of the maximal isoprenaline induced tachycardia in an anaesthetised ganglion blocked cat.

[4] = Hypotension and aortic blood flow in anaesthetised cats; assay type: in vivo, cat; settings: 4 μmol Kg^-1 (base) and 7 μmol Kg^-1 (hydrochloride)
[5] = Intrinsic sympathomimetic activity (tachycardia) in anaesthetised ganglion blocked cat; assay type: in vivo
Text: as §3

β1 -receptors [6] = target: T1, β1 -receptors; experiment: β-Adrenoceptor antagonist activity: inhibition of isoprenaline-induced tachycardia in ganglion blocked anaesthetised cats; assay type: in vivo, cat; settings: prizidilol at doses giving a similar effect
[7] = Anti-hypertensive activity in conscious cats, oral; assay type: in vivo, cat; settings: 19 μmol Kg^-1 (Example 1 base), 16 μmol Kg^-1 (Example 4 methanesulphonate); for changes in heart rate: at least 2 hours
[8] = Observation of toxic effects in conscious spontaneously hypertensive rats, oral; assay type: in vivo, spontaneously hypertensive rat; settings: doses up to a maximum of 102 μmol Kg^-1
[9] = Blood pressure in conscious spontaneously hypertensive rats, intravenous and oral; assay type: in vivo, spontaneously hypertensive rat
[10] = tested on: isolated intact guinea pig trachea; experiment: Bronchodilatation: spontaneous tone of isolated intact guinea pig trachea; settings: bath concentration 1 μg ml^-1
Procedure: The compound of Example 4 (as methanesulphonate) (at a bath concentration of 1 μg ml^-1) caused a 50% reduction in the spontaneous tone of an isolated intact guinea pig trachea, as assessed by the method of Coleman R. A. and Farmer J. B. (1971), J. Pharm.

[11] = administration intra-arterially
[12] = iv, administration intravenously

ED50 (β1 -receptors [2]): 1.6 µmol/kg
SMILES: CC1CC(=O)NN=C1c1ccc(NC(=O)CCNC[C@H](O)COc2ccc(CCOCC3CC3)cc2)cc1 (single isomer, unassigned; (-)) [Example 11, (-)-6-[4-[3-[2-(-)-Hydroxy-3-[4-(2-(cyclopropylmethoxy)ethyl)phenoxy]propylamino]propionamido]phenyl]-5-methyl-4,5-dihydro-3(2H)-pyridazione[(-) (-)isomer]]
ED (50% increase) [1, 11]: 1.1 µmol/kg
ED (40 mm Hg) [3]: 2.1 µmol/kg
prolonged hypotension and β1-adrenoceptor antagonism over the same dose range (β1 -adrenoceptor): cause prolonged hypotension and β1 -adrenoceptor antagonism over the same dose range

SMILES: CC1CC(=O)NN=C1c1ccc(NC(=O)CCNCC(O)COc2ccc(CCOCC3CC3)cc2)cc1 (centres unmarked) [Example 1 as hydrochloride, 6-[4-[3-[2-Hydroxy-3-[4-(2-(cyclopropylmethoxy)ethyl)phenoxy]propylamino]propionamido]phenyl]-5-methyl-4,5-dihydro-3(2H)-pyridazinone]
dose required to increase hindquarters blood flow by 50% ([1]; administration intravenously, listed as 1, as hydrochloride): 4.0 µmol/kg
ID50 (inhibition of isoprenaline-induced tachycardia by 50%) (β1 -receptors [2]; listed as 1, as hydrochloride): 4.3 µmol/kg
dose required to lower blood pressure by 40 mm Hg ([3]; listed as 1, as hydrochloride): 4.0 µmol/kg
prolonged hypotension and β1-adrenoceptor antagonism over the same dose range (β1 -adrenoceptor): cause prolonged hypotension and β1 -adrenoceptor antagonism over the same dose range

SMILES: CC1CC(=O)NN=C1c1ccc(NC(=O)CCNCC(O)COc2ccc(CCOCC3CC3)cc2)cc1 (centres unmarked) [Example 1, 6-[4-[3-[2-Hydroxy-3-[4-(2-(cyclopropylmethoxy)ethyl)phenoxy]propylamino]propionamido]phenyl]-5-methyl-4,5-dihydro-3(2H)-pyridazinone]
changes in aortic blood flow [4]: minimal changes in aortic blood flow
hypotension [4]: significant dose-dependent hypotension
dose required to increase hindquarters blood flow by 50% ([1]; administration intravenously, as base): 11.5 µmol/kg
ID50 (inhibition of isoprenaline-induced tachycardia by 50%) (β1 -receptors [2]; as base): 1.9 µmol/kg
selectivity for β1-receptors (β1 -receptors [2]; in vivo): evidence that this compound has selectivity for β1 -receptors
maximal increase, of the maximal isoprenaline induced tachycardia [5]: approximately 10%
duration of inhibition of isoprenaline-induced tachycardia (β1 -receptors [6]): prolonged duration of inhibition
dose required to lower blood pressure by 40 mm Hg ([3]; as base): 8.0 µmol/kg
prolonged hypotension and β1-adrenoceptor antagonism over the same dose range (β1 -adrenoceptor): cause prolonged hypotension and β1 -adrenoceptor antagonism over the same dose range
period of blood pressure reduction with minimal heart rate change [7]: at least 2 hours
reductions in blood pressure [7]: reductions in blood pressure
changes in heart rate [7]: minimal changes in heart rate

ED50 (β1 -receptors [2]): 8.63 µmol/kg
SMILES: CCCc1cc(CCOCC2CC2)ccc1OCC(O)CNCCC(=O)Nc1ccc(C2=NNC(=O)CC2C)cc1 (centres unmarked) [Example 2, 6-[4-[3-[2-Hydroxy-3-[2-n-propyl-4-(2-(cyclopropylmethoxy)ethyl)phenoxy]propylamino]propionamido]phenyl]-5-methyl-4,5-dihydro-3(2H)-pyridazinone]
ED (50% increase) [1, 12]: 1.43 µmol/kg
ED (40 mm Hg) [3]: 3.15 µmol/kg

ED50 (β1 -receptors [2]): 7.84 µmol/kg
SMILES: Cc1cc(CCOCC2CC2)ccc1OCC(O)CNCCC(=O)Nc1ccc(C2=NNC(=O)CC2C)cc1 (centres unmarked) [Example 3, 6-[4-[3-[2-Hydroxy-3-[2-methyl-4-(2-(cyclopropylmethoxy)ethyl)phenoxy]propylamino]propionamido]phenyl]-5-methyl-4,5-dihydro-3(2H)-pyridazinone]
ED (50% increase) [1, 12]: 1.95 µmol/kg
ED (40 mm Hg) [3]: 2.95 µmol/kg

SMILES: CC1CC(=O)NN=C1c1ccc(NC(=O)CCNCC(O)COc2ccc(CCOCC3CC3)cc2)cc1 (centres unmarked) [Example 4, 6-[4-[3-[2-Hydroxy-3-[4-(2-(cyclopropylmethoxy)ethyl)phenoxy]propylamino]propionamido]phenyl]-5-methyl-4,5-dihydro-3(2H)-pyridazinone]
ED (50% increase) [1, 11]: 1.7 µmol/kg
duration of vasodilatation ([1]; autoperfused anaesthetised rat hindquarters): prolonged duration of vasodilatation
toxic effects [8]: no toxic effects were observed
duration of prolonged, significant reductions in blood pressure (up to and including, post dose) ([9]; intravenous, 3 to 13 μmol Kg^-1): 5 h
fall in blood pressure ([9]; intravenous, three dose levels from 3 to 13 μmol Kg^-1): significant fails in blood pressure
duration of prolonged, significant reductions in blood pressure (up to and including, post dose) ([9]; oral, 25 to 102 μmol Kg^-1): 5 h
hypotensive effect ([9]; oral, three doses from 25 to 102 μmol Kg^-1): significant hypotensive effect
ID50 (inhibition of isoprenaline-induced tachycardia by 50%) (β1 -receptors [2]; as methanesulphonate): 1.4 µmol/kg
inhibition of the reduction in tracheal tone by propanolol [10]: not inhibited by propanolol
reduction in spontaneous tone of trachea [10]: 50%
dose required to lower blood pressure by 40 mm Hg ([3]; as methanesulphonate): 2.8 µmol/kg
prolonged hypotension and β1-adrenoceptor antagonism over the same dose range (β1 -adrenoceptor): cause prolonged hypotension and β1 -adrenoceptor antagonism over the same dose range
period of blood pressure reduction with minimal heart rate change [7]: at least 2 hours
reductions in blood pressure [7]: reductions in blood pressure
changes in heart rate [7]: minimal changes in heart rate

duration of inhibition of isoprenaline-induced tachycardia (β1 -receptors [6]): short duration of inhibition
SMILES: CC(C)(C)NCC(O)COc1ccccc1-c1ccc(NN)nn1 (centres unmarked) [Prizidilol, reference compound]
ED (50% increase) [1, 11]: 10 µmol/kg
ED (40 mm Hg) [3]: 14 µmol/kg
